{"source": "patent US20260345619A1", "about": "(Principia Biopharma Inc., priority 2023, published 2026)", "experiment": "Loss of asthma control (LOAC) events, 12-week ICS/LABA withdrawal study", "type": "in vivo, human", "conditions": "400 mg TID", "from_the_text": "The general construct of this 12-week Loss of Asthma Control (LOAC) study consisted of a 4-week standardized ICS/LABA background therapy stabilization phase, a 4or 5-week background therapy withdrawal phase and a 3- or 4-week no background therapy phase, followed by a 4-week post IMP treatment safety follow-up period at the beginning of which, pre-screening asthma controller medications are restarted. Participants had access to short-acting β-agonist (SABA) reliever medication at all times during the protocol.\nThe primary endpoint was the proportion of patients with LOAC. The key secondary endpoint for the study was change in pre-bronchodilator FEV1 from baseline at EOT.\nThe primary endpoint was proportion of participants with LOAC during the 12-week treatment period.\nNote that if the number of participants in some regions was too low, these regions may have been pooled with other regions. This strategy also applied to all the rest of the analyses where region was one of the covariates.\nTo assess the consistency in treatment effects across different subgroup levels, subgroup analyses were to be performed for the primary efficacy endpoint with respect to age group, gender, region, and other factors.\nSecondary endpoints included pre-bronchodilator FEV1 change from baseline at EOT, ACQ-5 score change from baseline, and AQLQ score change from baseline. Other secondary and exploratory endpoints are described in Table 2.", "key": {"[1]": {"conditions": "all others than low EOS and low FeNO"}, "[2]": {"conditions": "baseline IgA <Median (2190) mg/L"}, "[3]": {"conditions": "baseline IgA ≥Median (2190) mg/L"}, "[4]": {"conditions": "baseline IgE <Median (121.85) IU/mL"}, "[5]": {"conditions": "baseline IgE ≥Median (121.85) IU/mL"}, "[6]": {"conditions": "baseline pre-BD FEV1 <Median (2.1955) L"}, "[7]": {"conditions": "baseline pre-BD FEV1 ≥Median (2.1955) L"}, "[8]": {"conditions": "blood eosinophil level 1 <0.15 (10^9/L)"}, "[9]": {"conditions": "blood eosinophil level 1 ≥0.15-<0.3 (10^9/L)"}, "[10]": {"conditions": "blood eosinophil level 1 ≥0.3 (10^9/L)"}, "[11]": {"conditions": "blood eosinophil level 2 <0.3 (10^9/L)"}, "[12]": {"conditions": "blood eosinophil level 2 ≥0.3 (10^9/L)"}, "[13]": {"conditions": "low EOS (<0.15) and low FeNO (<25)"}, "[14]": {"conditions": "percent predicted FEV1 group 1 <Median (77)"}, "[15]": {"conditions": "percent predicted FEV1 group 1 ≥Median (77)"}, "[16]": {"conditions": "percent predicted FEV1 group 2 <80"}, "[17]": {"conditions": "percent predicted FEV1 group 2 ≥80"}}}
{"smiles": "CC(C)(C=C(C#N)C(=O)N1CCC[C@@H](n2nc(-c3ccc(Oc4ccccc4)cc3F)c3c(N)ncnc32)C1)N1CCN(C2COC2)CC1", "note": "(mixture of isomers) [rilzabrutinib, (R)-2-[3-[4-amino-3-(2-fluoro-4-phenoxy-phenyl)pyrazolo[3,4-d]pyrimidin-1-yl]piperidine-1-carbonyl]-4-methyl-4-[4-(oxetan-3-yl)piperazin-1-yl]pent-2-enenitrile]", "values": [{"measurement": "OR vs. placebo", "setting": "[1]", "result": 0.752}, {"measurement": "RD vs. Placebo", "setting": "[1]", "result": "−0.049"}, {"measurement": "LOAC, number", "setting": "atopic medical conditions: No", "result": 8}, {"measurement": "OR vs. placebo", "setting": "atopic medical conditions: No", "result": 0.493}, {"measurement": "RD vs. Placebo", "setting": "atopic medical conditions: No", "result": "−0.130"}, {"measurement": "LOAC, number", "setting": "atopic medical conditions: Yes", "result": 4}, {"measurement": "OR vs. placebo", "setting": "atopic medical conditions: Yes", "result": 0.821}, {"measurement": "RD vs. Placebo", "setting": "atopic medical conditions: Yes", "result": "−0.031"}, {"measurement": "LOAC, number", "setting": "background ICS dose High", "result": 6}, {"measurement": "OR vs. placebo", "setting": "background ICS dose High", "result": 0.911}, {"measurement": "RD vs. Placebo", "setting": "background ICS dose High", "result": "−0.011"}, {"measurement": "LOAC, number", "setting": "background ICS dose Medium", "result": 6}, {"measurement": "OR vs. placebo", "setting": "background ICS dose Medium", "result": 0.421}, {"measurement": "RD vs. Placebo", "setting": "background ICS dose Medium", "result": "−0.173"}, {"measurement": "LOAC, number", "setting": "baseline ACQ-5 >2", "result": 6}, {"measurement": "OR vs. placebo", "setting": "baseline ACQ-5 >2", "result": 0.346}, {"measurement": "RD vs. Placebo", "setting": "baseline ACQ-5 >2", "result": "−0.181"}, {"measurement": "LOAC, number", "setting": "baseline ACQ-5 ≤2", "result": 6}, {"measurement": "OR vs. placebo", "setting": "baseline ACQ-5 ≤2", "result": 1.162}, {"measurement": "RD vs. Placebo", "setting": "baseline ACQ-5 ≤2", "result": 0.025}, {"measurement": "LOAC, number", "setting": "baseline FeNO level 1 <25 ppb", "result": 9}, {"measurement": "OR vs. placebo", "setting": "baseline FeNO level 1 <25 ppb", "result": 0.567}, {"measurement": "RD vs. Placebo", "setting": "baseline FeNO level 1 <25 ppb", "result": "−0.065"}, {"measurement": "LOAC, number", "setting": "baseline FeNO level 1 ≥25 ppb", "result": 3}, {"measurement": "OR vs. placebo", "setting": "baseline FeNO level 1 ≥25 ppb", "result": 0.798}, {"measurement": "RD vs. Placebo", "setting": "baseline FeNO level 1 ≥25 ppb", "result": "−0.053"}, {"measurement": "LOAC, number", "setting": "baseline FeNO level 2 <35 ppb", "result": 9}, {"measurement": "OR vs. placebo", "setting": "baseline FeNO level 2 <35 ppb", "result": 0.655}, {"measurement": "RD vs. Placebo", "setting": "baseline FeNO level 2 <35 ppb", "result": "−0.029"}, {"measurement": "LOAC, number", "setting": "baseline FeNO level 2 ≥35 ppb", "result": 3}, {"measurement": "OR vs. placebo", "setting": "baseline FeNO level 2 ≥35 ppb", "result": 0.628}, {"measurement": "RD vs. Placebo", "setting": "baseline FeNO level 2 ≥35 ppb", "result": "−0.094"}, {"measurement": "LOAC, number", "setting": "[2]", "result": 6}, {"measurement": "OR vs. placebo", "setting": "[2]", "result": 0.774}, {"measurement": "RD vs. Placebo", "setting": "[2]", "result": "−0.011"}, {"measurement": "LOAC, number", "setting": "[3]", "result": 6}, {"measurement": "OR vs. placebo", "setting": "[3]", "result": 0.514}, {"measurement": "RD vs. Placebo", "setting": "[3]", "result": "−0.120"}, {"measurement": "LOAC, number", "setting": "baseline IgE <100 IU/mL", "result": 4}, {"measurement": "OR vs. placebo", "setting": "baseline IgE <100 IU/mL", "result": 0.602}, {"measurement": "RD vs. Placebo", "setting": "baseline IgE <100 IU/mL", "result": "−0.085"}, {"measurement": "LOAC, number", "setting": "[4]", "result": 6}, {"measurement": "OR vs. placebo", "setting": "[4]", "result": 0.681}, {"measurement": "RD vs. Placebo", "setting": "[4]", "result": "−0.070"}, {"measurement": "LOAC, number", "setting": "baseline IgE ≥100 IU/mL", "result": 8}, {"measurement": "OR vs. placebo", "setting": "baseline IgE ≥100 IU/mL", "result": 0.522}, {"measurement": "RD vs. Placebo", "setting": "baseline IgE ≥100 IU/mL", "result": "−0.122"}, {"measurement": "LOAC, number", "setting": "[5]", "result": 6}, {"measurement": "OR vs. placebo", "setting": "[5]", "result": 0.510}, {"measurement": "RD vs. Placebo", "setting": "[5]", "result": "−0.122"}, {"measurement": "LOAC, number", "setting": "[6]", "result": 7}, {"measurement": "OR vs. placebo", "setting": "[6]", "result": 0.827}, {"measurement": "RD vs. Placebo", "setting": "[6]", "result": "−0.036"}, {"measurement": "OR vs. placebo", "setting": "[7]", "result": 0.362}, {"measurement": "RD vs. Placebo", "setting": "[7]", "result": "−0.176"}, {"measurement": "LOAC, number", "setting": "[8]", "result": 6}, {"measurement": "OR vs. placebo", "setting": "[8]", "result": 0.716}, {"measurement": "RD vs. Placebo", "setting": "[8]", "result": "−0.062"}, {"measurement": "LOAC, number", "setting": "[9]", "result": 4}, {"measurement": "OR vs. placebo", "setting": "[9]", "result": 1.619}, {"measurement": "RD vs. Placebo", "setting": "[9]", "result": 0.072}, {"measurement": "LOAC, number", "setting": "[10]", "result": 2}, {"measurement": "OR vs. placebo", "setting": "[10]", "result": 0.139}, {"measurement": "RD vs. Placebo", "setting": "[10]", "result": "−0.363"}, {"measurement": "LOAC, number", "setting": "[11]", "result": 10}, {"measurement": "OR vs. placebo", "setting": "[11]", "result": 1.019}, {"measurement": "RD vs. Placebo", "setting": "[11]", "result": 0.047}, {"measurement": "LOAC, number", "setting": "[12]", "result": 2}, {"measurement": "OR vs. placebo", "setting": "[12]", "result": 0.146}, {"measurement": "RD vs. Placebo", "setting": "[12]", "result": "−0.350"}, {"measurement": "LOAC, number", "setting": "[13]", "result": 4}, {"measurement": "OR vs. placebo", "setting": "[13]", "result": 0.441}, {"measurement": "RD vs. Placebo", "setting": "[13]", "result": "−0.157"}, {"measurement": "LOAC, number", "setting": "[14]", "result": 4}, {"measurement": "OR vs. placebo", "setting": "[14]", "result": 0.452}, {"measurement": "RD vs. Placebo", "setting": "[14]", "result": "−0.129"}, {"measurement": "LOAC, number", "setting": "[15]", "result": 8}, {"measurement": "OR vs. placebo", "setting": "[15]", "result": 0.599}, {"measurement": "RD vs. Placebo", "setting": "[15]", "result": "−0.078"}, {"measurement": "LOAC, number", "setting": "[16]", "result": 7}, {"measurement": "OR vs. placebo", "setting": "[16]", "result": 0.736}, {"measurement": "RD vs. Placebo", "setting": "[16]", "result": "−0.047"}, {"measurement": "OR vs. placebo", "setting": "[17]", "result": 0.429}, {"measurement": "RD vs. Placebo", "setting": "[17]", "result": "−0.139"}, {"measurement": "LOAC, number", "setting": "smoking history Former", "result": 2}, {"measurement": "OR vs. placebo", "setting": "smoking history Former", "result": 0.500}, {"measurement": "RD vs. Placebo", "setting": "smoking history Former", "result": "−0.167"}, {"measurement": "LOAC, number", "setting": "smoking history Never", "result": 10}, {"measurement": "OR vs. placebo", "setting": "smoking history Never", "result": 0.551}, {"measurement": "RD vs. Placebo", "setting": "smoking history Never", "result": "−0.102"}]}
